This passage reports Activity and inhibition results from ChEMBL document CHEMBL5154656, “High-Throughput Screening Platform in Postnatal Heart Cells and Chemical Probe Toolbox to Assess Cardiomyocyte Proliferation” (J Med Chem, 2022).

Activity calls are given as the source filed them. The calls are words filed in the database; no cut-off is given here.

For orientation: inhibition means the share of the control response that was lost under treatment. Lower therefore signals little suppression.

Data set [1] relates to Cardiac Muscle Cell. As to the kind of experiment: Induction of cell proliferation in postnatal day 1 transgenic mouse cardiac cells assessed as increase in percentage of eGFP-anillin-positive cardiomyocytes. It is filed as functional, cell-based.
Data set [2] has as its system Cardiac muscle cell. Description: Induction of cell proliferation in postnatal day 5 rat cardiac cells assessed as increase in nuclear to cytoplasmic YAP ratio for 4 to 24 hrs by immunostaining analysis. The format is functional, cell-based. The conditions noted are these: time 4-24 hrs.
The nature of data set [3]: Cytotoxicity against mouse Cardiomyocytes assessed as toxicity at 0.33 to 10 uM. The format is cell-based. The conditions noted are these: cardiac muscle cell, dose 0.33-10 µM.
In data set [4] the test system is Cardiac muscle cell. Description: Cytotoxicity against rat Cardiomyocytes assessed as toxicity at 0.33 to 10 uM. It is filed as cell-based. The conditions noted are these: dose 0.33-10 µM.
In data set [5] the test system is Cardiac muscle cell. Description: Induction of cell proliferation in postnatal day 5 rat cardiac cells assessed as increase in total CM nuclei number. The format is functional, cell-based.
In data set [6] the test system is Cardiac Muscle Cell. As to the kind of experiment: Induction of cell proliferation in postnatal day 1 transgenic mouse cardiac cells assessed as increase in total CM nuclei number. It is filed as functional, cell-based.
The test system of data set [7] is Cardiac Muscle Cell. Description: Induction of cell proliferation in postnatal day 1 transgenic mouse cardiac cells assessed as increase in bi-nucleation. It is filed as functional, cell-based.
In data set [8] the test system is Cardiac Muscle Cell. Description: Induction of cell proliferation in postnatal day 6 CD1 mouse heart assessed as increase in number of cardiomyocyte by measuring mCherry+ cardiomyocyte nuclei at 0.001 to 1 uM. The conditions noted are these: dose 0.001-1 µM, DDE = dose-dependent effect. It is filed as functional, cell-based.
Data set [9] deals with Cardiac Muscle Cell. Description: Induction of cell proliferation in postnatal day 6 transgenic mouse cardiac cells assessed as increase in percentage of eGFP-anillin-positive cardiomyocytes. The format is functional, cell-based.
Data set [10] has as its system Cardiac Muscle Cell. As to the kind of experiment: Induction of cell proliferation in postnatal day 6 mouse cardiac cells assessed as increase in total CM nuclei number. It is filed as functional, cell-based.
In data set [11] the test system is Cardiac muscle cell. As to the kind of experiment: Pro-proliferative activity in Wistar rat cardiac cells from P6 late postnatal developmental time points assessed as effect on cell number by measuring alphaAct/Ki67 cardiomyocyte nuclei at 0.33 to 10 uM by DAPI analysis. The format is functional, cell-based. The conditions noted are these: dose 0.33-10 µM.
Data set [12] relates to Cardiac muscle cell. Description: Pro-proliferative activity in Wistar rat cardiac cells from P1 early postnatal developmental time points assessed as effect on cell number by measuring alphaAct/Ki67 cardiomyocyte nuclei at 0.33 to 10 uM by DAPI analysis. The conditions noted are these: dose 0.33-10 µM. It is filed as functional, cell-based.
Data set [13] has as its target Mitogen-activated protein kinase 14 (Homo sapiens) (UniProt Q16539). Description: Inhibition of P38alphaMAPK (unknown origin) relative to control. The conditions noted are these: concentration not given here.
The target in data set [14] is Mitogen-activated protein kinase 11 (Homo sapiens) (UniProt Q15759). As to the kind of experiment: Inhibition of P38betaMAPK (unknown origin) relative to control. The conditions noted are these: concentration not given here.
A short description of data set [15]: Cytotoxicity against mouse Cardiomyocytes assessed as toxicity at > 1 uM. It is filed as cell-based. The conditions noted are these: cardiac muscle cell.
The subject of data set [16] is Cardiac muscle cell. Description: Cytotoxicity against rat Cardiomyocytes assessed as toxicity at > 1 uM. It is filed as cell-based.
Data set [17] concerns Cardiac muscle cell. Description: Induction of cell proliferation in postnatal day 6 rat cardiac cells assessed as increasing in number of cardiomyocytes. The format is functional, cell-based. The conditions noted are these: dose 0.1-10 µM, DDE = dose-dependent effect.
Data set [18] has as its system Cardiac Muscle Cell. Description: Induction of cell proliferation in postnatal day 6 CD1 mouse cardiac cells assessed as enhancement in cardiomyocyte numbers by measuring alphaAct+. It is filed as functional, cell-based.
Data set [19] concerns Cardiac muscle cell. Description: Induction of cell proliferation in postnatal day 6 Wistar rat cardiac cells assessed as enhancement cardiomyocyte numbers by measuring alphaAct+. It is filed as functional, cell-based.
Data set [20] concerns Cardiac muscle cell. As to the kind of experiment: Induction of cell proliferation in postnatal day 1 Wistar rat cardiac cells assessed as enhancement cardiomyocyte numbers by measuring alphaAct+. The format is functional, cell-based.
Data set [21] has as its system Cardiac Muscle Cell. As to the kind of experiment: Induction of cell proliferation in postnatal day 1 CD1 mouse cardiac cells assessed as enhancement in cardiomyocyte numbers by measuring alphaAct+. It is filed as functional, cell-based.
The test system of data set [22] is Cardiac Muscle Cell. Description: Induction of cell proliferation in postnatal day 6 mouse cardiac cells assessed as increase in CM numbers at 0.33 to 5 uM. It is filed as functional, cell-based. The conditions noted are these: dose 0.33-5 µM.
The subject of data set [23] is Cardiac Muscle Cell. Description: Induction of cell proliferation in postnatal day 6 mouse cardiac cells assessed as stimulation in pro-prolierative responses. The conditions noted are these: dose 0.33-10 µM, DDE = dose-dependent effect. The format is functional, cell-based.
Data set [24] deals with Cardiac muscle cell. As to the kind of experiment: Induction of cell proliferation in postnatal day 6 rat cardiac cells assessed as increase in CM numbers at 0.33 to 5 uM. The conditions noted are these: dose 0.33-5 µM. The format is functional, cell-based.
For data set [25], the system named is Cardiac Muscle Cell. Description: Induction of cell proliferation in postnatal day 1 mouse cardiac cells assessed as increase in CM numbers at 0.33 to 5 uM. It is filed as functional, cell-based. The conditions noted are these: dose 0.33-5 µM.
Data set [26] concerns Cardiac muscle cell. As to the kind of experiment: Induction of cell proliferation in postnatal day 6 rat cardiac cells assessed as stimulation in pro-prolierative responses. The conditions noted are these: dose 0.1-10 µM, DDE = dose-dependent effect. The format is functional, cell-based.
Data set [27] relates to Cardiac muscle cell. Description: Induction of cell proliferation in postnatal day 1 Wistar rat cardiac cells assessed as increase in cardiomyocyte numbers by measuring alphaAct+ at 0.33 to 5 uM. The format is functional, cell-based. The conditions noted are these: dose 0.33-5 µM.

Sequence of Mitogen-activated protein kinase 11 (Homo sapiens) (Q15759 whole entry): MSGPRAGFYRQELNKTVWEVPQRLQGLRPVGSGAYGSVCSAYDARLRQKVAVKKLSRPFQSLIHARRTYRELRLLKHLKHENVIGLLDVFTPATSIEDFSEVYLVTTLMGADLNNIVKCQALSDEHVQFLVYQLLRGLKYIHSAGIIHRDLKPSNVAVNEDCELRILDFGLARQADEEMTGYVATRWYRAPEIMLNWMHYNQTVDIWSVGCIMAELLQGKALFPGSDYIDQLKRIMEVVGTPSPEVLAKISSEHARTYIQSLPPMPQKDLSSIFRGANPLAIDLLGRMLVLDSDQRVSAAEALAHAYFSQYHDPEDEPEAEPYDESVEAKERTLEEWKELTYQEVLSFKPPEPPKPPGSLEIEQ
Sequence of Mitogen-activated protein kinase 14 (Homo sapiens) (Q16539 whole entry): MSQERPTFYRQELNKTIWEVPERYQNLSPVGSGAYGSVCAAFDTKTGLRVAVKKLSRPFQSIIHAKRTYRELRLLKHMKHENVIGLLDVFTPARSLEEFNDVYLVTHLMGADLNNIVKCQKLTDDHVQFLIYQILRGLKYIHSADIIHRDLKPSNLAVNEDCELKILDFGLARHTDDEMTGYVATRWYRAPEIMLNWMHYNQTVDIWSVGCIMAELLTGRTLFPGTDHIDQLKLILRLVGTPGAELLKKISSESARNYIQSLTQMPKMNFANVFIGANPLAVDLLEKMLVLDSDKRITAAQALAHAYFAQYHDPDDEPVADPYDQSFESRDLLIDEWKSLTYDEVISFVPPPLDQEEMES

For the compound `CN1CCN(Cc2ccc(NC(=O)Cc3ccc(Oc4cc(NC(=O)C5CC5)ncn4)cc3)cc2C(F)(F)F)CC1`, the result with Cardiac Muscle Cell [1], in the data set on Cardiac muscle cell [2], in the data set with Cardiac muscle cell [5], in the data set on Cardiac Muscle Cell [6], with Cardiac Muscle Cell [7] and in the data set on Cardiac Muscle Cell [9] was Active. Also, the outcome with Cardiac Muscle Cell [10] was Active. In addition, the Activity result in data set [3] was “Non-Toxic”; with Cardiac muscle cell [4], “Non-Toxic”; with Cardiac Muscle Cell [8], “Dde”.
On to `O=C1c2ccc(Nc3ccc(F)cc3F)cc2CCc2ccc(OC[C@H](O)CO)cc21`, for which the outcome in the data set on Cardiac muscle cell [11] and with Cardiac muscle cell [12] was Active. Further, the inhibition in data set [13] and in data set [14] was 99.8% throughout.
With `O=C(NCC(O)CO)c1ccc2c(c1)C(=O)c1ccc(Nc3ccc(F)cc3F)cc1CC2` (stereo not drawn), the result in the data set with Cardiac muscle cell [11] and with Cardiac muscle cell [12] was Active.
For the compound `CCn1c(=O)[nH]c2ccccc21`, the Activity result (in data set [15]; with Cardiac muscle cell [16]) was “Toxic” throughout.
With `CN1CCN(Cc2ccc(NC(=O)Nc3ccc(Oc4cc(NC(=O)C5CC5)ncn4)cc3)cc2C(F)(F)F)CC1`, the outcome in the data set with Cardiac Muscle Cell [1], in the data set on Cardiac muscle cell [5], with Cardiac Muscle Cell [6], in the data set on Cardiac Muscle Cell [7], in the data set on Cardiac Muscle Cell [9] and in the data set on Cardiac Muscle Cell [10] was Active. Besides, in the data set on Cardiac Muscle Cell [8], the Activity entry is “Dde”.
With `Cc1c[nH]c(-c2cnc(NCCNc3ccc(C#N)cn3)nc2-c2ccc(Cl)cc2Cl)n1` [LADUVIGLUSIB], the Activity result (in [3]; in the data set with Cardiac muscle cell [4]) was “Non-Toxic” throughout.
For `Cc1cnc(-c2cnc(NCCNc3ccc(C#N)cn3)nc2-c2ccc(Cl)cc2Cl)[nH]1`, the outcome in the data set on Cardiac muscle cell [2] was Active. In addition, the Activity entry in the data set on Cardiac muscle cell [17] was “Dde”.
`COc1nccc(-c2c(-c3ccc(F)cc3)ncn2[C@H]2CC[C@H](O)CC2)n1`: the result in the data set on Cardiac Muscle Cell [18], in the data set on Cardiac muscle cell [19], with Cardiac muscle cell [20], with Cardiac Muscle Cell [21], in the data set with Cardiac Muscle Cell [22] and with Cardiac muscle cell [24] was Active. For the same compound, the result in the data set with Cardiac Muscle Cell [25] and in the data set with Cardiac muscle cell [27] was Active. Besides, the Activity result is “Dde” in the data set on Cardiac Muscle Cell [23], “Non-Toxic” in data set [3], “Non-Toxic” with Cardiac muscle cell [4] and “Dde” in the data set with Cardiac muscle cell [26].
`O=C(OCCN1CCOCC1)c1ccc2c(c1)C(=O)c1ccc(Nc3ccc(F)cc3F)cc1CC2`: the outcome with Cardiac muscle cell [11] and with Cardiac muscle cell [12] was Active.
